US20090162495A1, “Derivatives of Di-Carbonyl Aromachemicals” (FLEXITRAL INC, priority 2005, published 2009)

Key:
[1] = water solubility of the adduct; assay type: physicochemical; details: water-soluble salt, e.g. alkali metal (sodium) salt
Source text: (§1) Diacetyl is known to form an adduct with sodium hydrogen sulfite [2-butanesulfonic acid, 2-hydroxy-3-oxo-, monosodium salt—CAS 13489-36-6]. See also French patent 2,845,903. This adduct is in equilibrium with the starting materials and, in practice, releases small amounts of diacetyl and sulfite continuously. The above-mentioned French patent discloses that the adduct is useful in hair care products as a straightening agent. The vapor pressure of the diacetyl adduct is negligible, thereby resulting in little or no odor. It is usually obtained and used in the form of a water-soluble salt, such as, e.g., an alkali metal (sodium) salt. Since it is water soluble, it can therefore be sprayed directly onto foodstuffs safely. The flavor imparted by the adduct is dominated by diacetyl, since at low concentrations, the sulfite taste and flavor is imperceptible.

[2] = vapor pressure of the adduct; assay type: physicochemical; details: resulting in little or no odor
Source text: as §1

**Q.** Which water solubility [1] does the source give for `CC(=O)C(C)(O)S(=O)(=O)[O-].[Na+]` (centres unmarked) [diacetyl adduct, 2-butanesulfonic acid, 2-hydroxy-3-oxo-, monosodium salt] here?
**A.** water soluble

**Q.** What about the vapor pressure [2] of the same compound?
**A.** negligible
